Laboratory results reported in patent US20230085307A1, “PYRIDAZINONE COMPOUND AND HERBICIDE” (NISSAN CHEMICAL CORPORATION, priority 2019, published 2023).

Assays:
[1] = system: barnyard grass; test: Test Example 4: herbicidal effect by soil treatment (Table 19, symbol H); format: in vivo, barnyard grass (Echinochloa crus-galli); conditions: amount of applied herbicide 320 g/ha
Method in brief: (§1)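 Applied as a water-diluted emulsion, the compound was sprayed onto soil covering newly sown seeds. Evaluation came three weeks after application, in a greenhouse held at 25° C. to 30° C.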

[2] = system: soybean; test: Test Example 5: effect on crop by foliage application, plastic box (Table 20, symbol d); format: in vivo; conditions: 320 g/ha, three weeks after application
Text: (§2) [Test Example 5] Herbicidal Effect Test by Foliage Application
(§3) Sterilized diluvial soil was placed in a plastic box having a length of 21 cm, a width of 13 cm, and a depth of 7 cm. The seeds of each of southern crabgrass, green foxtail, barnyard grass, wild oat, blackgrass, Italian ryegrass, windgrass, velvetleaf, redroot pigweed, lambsquarters, chickweed, false cleavers, persian speedwell, corn, soybean, rice, wheat, beet, and rapeseed were sowed in a spot-like manner and covered with the soil having a thickness of about 1.5 cm. Thereafter, the plants were grown in a greenhouse at 25° C. to 30° C. After 14-day growth of the plants, the emulsion agent of the compound of the present invention prepared according to Formulation Example 2 was diluted with water so as to achieve a predetermined herbicide amount, and the diluted emulsion agent was uniformly applied to a foliage part with a small-sized spray. Three weeks after the herbicide application, the effect of the herbicide on each plant was evaluated according to the criteria of Test Example 1.

[3] = system: chickweed; test: Test Example 5: herbicidal effect by foliage application, plastic box (Table 20, symbol P); format: in vivo, common chickweed (Stellaria media); conditions: foliage application, 320 g/ha, three weeks after application
Method in brief: (§4)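 Sow seeds spot-wise in sterilized diluvial soil; cover with ~1.5 cm soil. Grow 14 days in greenhouse, 25° C. to 30° C. Spray foliage with emulsion diluted to predetermined amount. Rate effect after 3 weeks.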

[4] = system: wheat; test: Test Example 5: effect on crop by foliage application, plastic box (Table 20, symbol e); format: in vivo; conditions: 320 g/ha, three weeks after application
Text: as §2, §3

[5] = system: wild oat; test: Test Example 4: herbicidal effect by soil treatment (Table 19, symbol I); format: in vivo, wild oat (Avena fatua); conditions: amount of applied herbicide 320 g/ha
Method in brief: as §1

[6] = system: southern crabgrass; test: Test Example 5: herbicidal effect by foliage application, plastic box (Table 20, symbol F); format: in vivo, southern crabgrass (Digitaria ciliaris); conditions: foliage application, 320 g/ha, three weeks after application
Method in brief: as §4

[7] = system: beet; test: Test Example 4: effect on crop by soil treatment (Table 19, symbol f); format: in vivo; conditions: amount of applied herbicide 320 g/ha
Method in brief: as §1

[8] = system: soybean; test: Test Example 4: effect on crop by soil treatment (Table 19, symbol d); format: in vivo; conditions: amount of applied herbicide 320 g/ha
Text: (§5) [Test Example 4] Herbicidal Effect Test by Soil Treatment
as §3, with “Subsequently,” for “Thereafter, the plants were grown in a greenhouse at 25° C. to 30° C. After 14-day growth of the plants,”, “the surface of the soil” for “a foliage part”, “spray. The plastic box was placed in a greenhouse at 25° C. to 30° C. for growth of the plants.” for “spray.”

[9] = system: southern crabgrass; test: Test Example 4: herbicidal effect by soil treatment (Table 19, symbol F); format: in vivo, southern crabgrass (Digitaria ciliaris); conditions: amount of applied herbicide 320 g/ha
Method in brief: as §1

[10] = system: chickweed; test: Test Example 4: herbicidal effect by soil treatment (Table 19, symbol P); format: in vivo, common chickweed (Stellaria media); conditions: amount of applied herbicide 320 g/ha
Method in brief: as §1

[11] = system: green foxtail; test: Test Example 5: herbicidal effect by foliage application, plastic box (Table 20, symbol G); format: in vivo, green foxtail (Setaria viridis); conditions: foliage application, 320 g/ha, three weeks after application
Method in brief: as §4

[12] = system: corn; test: Test Example 5: effect on crop by foliage application, plastic box (Table 20, symbol c); format: in vivo; conditions: 320 g/ha, three weeks after application
Text: as §2, §3

[13] = system: wheat; test: Test Example 4: effect on crop by soil treatment (Table 19, symbol e); format: in vivo; conditions: amount of applied herbicide 320 g/ha
Method in brief: as §1

[14] = system: velvetleaf; test: Test Example 4: herbicidal effect by soil treatment (Table 19, symbol M); format: in vivo, velvetleaf (Abutilon theophrasti); conditions: amount of applied herbicide 320 g/ha
Method in brief: as §1

[15] = system: redroot pigweed; test: Test Example 4: herbicidal effect by soil treatment (Table 19, symbol N); format: in vivo, redroot pigweed (Amaranthus retroflexus); conditions: amount of applied herbicide 320 g/ha
Method in brief: as §1

[16] = system: rapeseed; test: Test Example 5: effect on crop by foliage application, plastic box (Table 20, symbol g); format: in vivo; conditions: 320 g/ha, three weeks after application
Text: as §2, §3

[17] = system: rapeseed; test: Test Example 4: effect on crop by soil treatment (Table 19, symbol g); format: in vivo; conditions: amount of applied herbicide 320 g/ha
Text: as §5
as §3, with “Subsequently,” for “Thereafter, the plants were grown in a greenhouse at 25° C. to 30° C. After 14-day growth of the plants,”, “the surface of the soil” for “a foliage part”, “spray. The plastic box was placed in a greenhouse at 25° C. to 30° C. for growth of the plants.” for “spray.”

[18] = system: windgrass; test: Test Example 4: herbicidal effect by soil treatment (Table 19, symbol L); format: in vivo, windgrass (Apera spica-venti); conditions: amount of applied herbicide 320 g/ha
Method in brief: as §1

[19] = system: persian speedwell; test: Test Example 4: herbicidal effect by soil treatment (Table 19, symbol R); format: in vivo, Persian speedwell (Veronica persica); conditions: amount of applied herbicide 320 g/ha
Method in brief: as §1

**Q.** Which results are given for `COc1ccc2c(-c3c(O)c(N)nn(C)c3=O)c(-c3ccccc3OC)sc2c1` [Compound No. 3-087, 6-amino-5-hydroxy-4-(6-methoxy-2-(2-methoxyphenyl)benzo[b]thiophen-3-yl)-2-methyl pyridazin-3(2H)-one]?
**A.** H: barnyard grass, herbicidal effect grade [1]: 0 (Herbicidal rate of 5% or less (almost no effect)); d: soybean, effect on crop grade [2]: 0 (Herbicidal rate of 5% or less (almost no effect)); P: chickweed, herbicidal effect grade [3]: 5 (Herbicidal rate of 90% or more (almost completely withered)); e: wheat, effect on crop grade [4]: 0 (Herbicidal rate of 5% or less (almost no effect)); I: wild oat, herbicidal effect grade [5]: 0 (Herbicidal rate of 5% or less (almost no effect)); F: southern crabgrass, herbicidal effect grade [6]: 0 (Herbicidal rate of 5% or less (almost no effect)); f: beet, effect on crop grade [7]: 0 (Herbicidal rate of 5% or less (almost no effect)); d: soybean, effect on crop grade [8]: 0 (Herbicidal rate of 5% or less (almost no effect)); F: southern crabgrass, herbicidal effect grade [9]: 0 (Herbicidal rate of 5% or less (almost no effect)); P: chickweed, herbicidal effect grade [10]: 3 (Herbicidal rate of 40% or more and less than 70%); G: green foxtail, herbicidal effect grade [11]: 0 (Herbicidal rate of 5% or less (almost no effect)); c: corn, effect on crop grade [12]: 0 (Herbicidal rate of 5% or less (almost no effect)); e: wheat, effect on crop grade [13]: 0 (Herbicidal rate of 5% or less (almost no effect)); M: velvetleaf, herbicidal effect grade [14]: 0 (Herbicidal rate of 5% or less (almost no effect)); N: redroot pigweed, herbicidal effect grade [15]: 0 (Herbicidal rate of 5% or less (almost no effect)); g: rapeseed, effect on crop grade [16]: 4 (Herbicidal rate of 70% or more and less than 90%); g: rapeseed, effect on crop grade [17]: 0 (Herbicidal rate of 5% or less (almost no effect)); L: windgrass, herbicidal effect grade [18]: 0 (Herbicidal rate of 5% or less (almost no effect)); R: persian speedwell, herbicidal effect grade [19]: 3 (Herbicidal rate of 40% or more and less than 70%)
